Key:
[1] = tested on: defensin/elafin mRNA in immortalized human keratinocytes (HaCaT cells); test: RT-qPCR of innate peptide expression in non-infected immortalized keratinocytes (TNFα/LPS, siRNA, inhibitors); assay type: cell-based
[2] = tested on: HPV E7 oncoprotein with IKK complex or β-catenin destruction complex proteins; test: Gaussia princeps luciferase complementation assay (GPCA); assay type: binding, human papillomavirus / human; settings: for GPCA signal, interaction with CK1a1: partner CK1a1; for GPCA signal, interaction with CK1 alpha 1: partner CK1 alpha 1, Fig 4M; for GPCA signal, interaction with CK1e: partner CK1e; for GPCA signal, interaction with CK1g1: partner CK1g1; for GPCA signal, interaction with CK1g2: partner CK1g2; for GPCA signal, interaction with CK1g3: partner CK1g3; for GPCA signal, interaction with CK1d: partner CK1d; for GPCA signal, interaction with DVL1: partner DVL1; for GPCA signal, interaction with DVL2: partner DVL2; for GPCA signal, interaction with DVL3: partner DVL3; for GPCA signal, interaction with GSK3B: partner GSK3B; for GPCA signal, interaction with NEMO: partner NEMO, Fig 3K; for GPCA signal, interaction with PPP2CA: partner PPP2CA; for GPCA signal, interaction with PPP2CB: partner PPP2CB
Description: The coding (or mutated/truncated) sequences of HPV E7 from several alpha and beta genotypes (alpha: HPV16, 18, 33, and 39; beta: HPV8, 38, and 49) were transferred into Gateway-compatible GPCA destination vector pSPICA-N2. The open reading frames (ORFs) encoding proteins involved in IKK or β-catenin destruction complex were obtained from the human ORFeome v7.1 and 8.1 (Dana-Farber Cancer Institute, Boston, MA, USA) and were transferred into pSPICA-N1 plasmid. GPCA expression vectors (pSPICA-N1 and N2) allow the expression of two complementary fragments of the G. princeps luciferase (Gluc1 or Gluc2) linked to the N-terminal ends of tested proteins. All constructions were controlled by Sanger sequencing (GIGA-Genomics platform, University of Liege). GPCA experiments were then performed as extensively described previously[90],[91]. Briefly, HEK-293T cells were simultaneously transfected with 100 ng of pSPICA-N1-IKK or β-catenin destruction complex proteins and 100 ng of pSPICA-N2-E7 using PEI Max (Polysciences, Warrington, PA, USA). After 24 h, cells were washed, lysed and luciferase enzymatic activity was measured for 10 seconds using a Centro LB960 microplate luminometer (Berthold Technologies, Bad Wildbad, Germany). The luciferase assay system was purchased from Promega. As previously described, results were expressed as a luminescence value normalized over the sum of controls [normalized luminescence ratio (NLR)].

Compound: Cc1ccc(S(=O)(=O)/C=C/C#N)cc1 [BAY 11-7082, reference compound]
- TNFα/LPS-induced defensin/elafin mRNA levels [1]: significant decrease

Compound: HPV16 E7
- GPCA signal, interaction with Beta-TrCP ([2]; partner Beta-TRCP, Fig 4L, replicate 1): 8.518
- GPCA signal, interaction with Beta-TrCP ([2]; partner Beta-TRCP, Fig 4L, replicate 2): 8.927
- GPCA signal, interaction with Beta-TrCP ([2]; partner Beta-TRCP, Fig 4L, replicate 3): 6.394
- GPCA signal, interaction with Beta-TrCP ([2]; partner Beta-TrCP, Fig 4N, replicate 1): 8.216
- GPCA signal, interaction with Beta-TrCP ([2]; partner Beta-TrCP, Fig 4N, replicate 2): 18.6197
- GPCA signal, interaction with Beta-TrCP ([2]; partner Beta-TrCP, Fig 4N, replicate 3): 12.6285
- GPCA signal, interaction with CK1a1 ([2]; Fig 4L, replicate 1): 4.195
- GPCA signal, interaction with CK1a1 ([2]; Fig 4L, replicate 2): 4.4237
- GPCA signal, interaction with CK1a1 ([2]; Fig 4L, replicate 3): 4.5837
- GPCA signal, interaction with CK1 alpha 1 ([2]; replicate 1): 4.747
- GPCA signal, interaction with CK1 alpha 1 ([2]; replicate 2): 7.358
- GPCA signal, interaction with CK1 alpha 1 ([2]; replicate 3): 7.5013
- GPCA signal, interaction with CK1e ([2]; Fig 4L, replicate 1): 2.875
- GPCA signal, interaction with CK1e ([2]; Fig 4L, replicate 2): 2.433
- GPCA signal, interaction with CK1e ([2]; Fig 4L, replicate 3): 2.765
- GPCA signal, interaction with CK1g1 ([2]; Fig 4L, replicate 1): 13.8547
- GPCA signal, interaction with CK1g1 ([2]; Fig 4L, replicate 2): 9.7345
- GPCA signal, interaction with CK1g1 ([2]; Fig 4L, replicate 3): 4.265
- GPCA signal, interaction with CK1g2 ([2]; Fig 4L, replicate 1): 8.184
- GPCA signal, interaction with CK1g2 ([2]; Fig 4L, replicate 2): 7.066
- GPCA signal, interaction with CK1g2 ([2]; Fig 4L, replicate 3): 7.286
- GPCA signal, interaction with CK1g3 ([2]; Fig 4L, replicate 1): 8.632
- GPCA signal, interaction with CK1g3 ([2]; Fig 4L, replicate 2): 7.582
- GPCA signal, interaction with CK1g3 ([2]; Fig 4L, replicate 3): 7.146
- GPCA signal, interaction with CK1d ([2]; Fig 4L, replicate 1): 4.409
- GPCA signal, interaction with CK1d ([2]; Fig 4L, replicate 2): 3.975
- GPCA signal, interaction with CK1d ([2]; Fig 4L, replicate 3): 4.309
- GPCA signal, interaction with DVL1 ([2]; Fig 4L, replicate 1): 3.768
- GPCA signal, interaction with DVL1 ([2]; Fig 4L, replicate 2): 3.207
- GPCA signal, interaction with DVL1 ([2]; Fig 4L, replicate 3): 4.087
- GPCA signal, interaction with DVL2 ([2]; Fig 4L, replicate 1): 1.678
- GPCA signal, interaction with DVL2 ([2]; Fig 4L, replicate 2): 1.485
- GPCA signal, interaction with DVL2 ([2]; Fig 4L, replicate 3): 1.904
- GPCA signal, interaction with DVL3 ([2]; Fig 4L, replicate 1): 1.994
- GPCA signal, interaction with DVL3 ([2]; Fig 4L, replicate 2): 1.934
- GPCA signal, interaction with DVL3 ([2]; Fig 4L, replicate 3): 1.325
- GPCA signal, interaction with GSK3B ([2]; Fig 4L, replicate 1): 9.854
- GPCA signal, interaction with GSK3B ([2]; Fig 4L, replicate 2): 8.937
- GPCA signal, interaction with GSK3B ([2]; Fig 4L, replicate 3): 8.081
- GPCA signal, interaction with NEMO ([2]; replicate 1): 28.7366
- GPCA signal, interaction with NEMO ([2]; replicate 2): 37.4793
- GPCA signal, interaction with NEMO ([2]; replicate 3): 29.9172
- GPCA signal, interaction with PPP2CA ([2]; Fig 4L, replicate 1): 1.175
- GPCA signal, interaction with PPP2CA ([2]; Fig 4L, replicate 2): 1.457
- GPCA signal, interaction with PPP2CA ([2]; Fig 4L, replicate 3): 0.9985
- GPCA signal, interaction with PPP2CB ([2]; Fig 4L, replicate 1): 2.065
- GPCA signal, interaction with PPP2CB ([2]; Fig 4L, replicate 2): 1.7166
- GPCA signal, interaction with PPP2CB ([2]; Fig 4L, replicate 3): 1.3201

— paper PMC8885657, “HPV infection alters vaginal microbiome through down-regulating host mucosal innate peptides used by Lactobacilli as amino acid sources” (Nature Communications, 2022)
